Test results taken from patent US20070276032A1, “Use of 8-Prenylnaringenin for Hormone Replacement Therapy” (priority 2003, published 2007).

Columns and labels:
ovariectomized rats [1] = assay: Bone mineral density of proximal tibia, estradiol in ovariectomized rats (Example 2); assay type: in vivo, Sprague-Dawley rats; conditions: OVX rats; for Total bone density / Trabecular density: proximal tibia, s.c. 5 days a week, 4 weeks
Procedure: Fifty-six female Sprague-Dawley rats, 12-14 weeks old, were used altogether. Forty-nine animals were randomized into seven groups. Group 8 (seven animals) administered with the third vehicle, benzyl alcohol/sesame oil, was added to the study thirteen days later. Seven groups were ovariectomized (OVX) and one group was sham-operated (SHAM). Animals were treated subcutaneously once a day, five days a week (Monday-Friday) as follows. Groups 1 (the SHAM group) and 2 (the OVX group) were given the vehicle benzylbenzoate/ricinus oil (0.5 ml/kg, B/R). […] Treatments started on the day following surgical operation and continued for 4 weeks. At the end of the study, ex vivo BMD of proximal tibia was measured and serum estradiol was determined. In addition, uterus was weighed. Bone mineral density measurement was carried out by pQCT (XCT-960A, Stratec, Germany). The bone specimens were thawed before measurement. Six 1 mm-thick sections of the proximal tibia (2 mm below the epiphyseal growth plate) were scanned at 0.5 mm intervals using a voxel size of 0.148 mm. […] After bone densitometry, the specimens were wrapped back to saline saturated gauzes and stored at −20° C.

ovariectomized rats [2] = assay: Relative uterus weight, 8-PN racemic, 2S(−) 8-PN and estradiol hemihydrate in ovariectomized rats (Example 4); assay type: in vivo, Sprague-Dawley rats; conditions: OVX rats, s.c. 28 days, calculated as percentage of body weight
Procedure: (§1) The aim of the study was to directly compare the effects of Prenylnaringenin (racemate) and 2S(−) 8-Prenylnaringenin to the effects of estradiol hemihydrate on bone mineral density and uterine weight on 3-month-old ovariectomized rats using identical formulations. In addition, the effects of estradiolhemihydrate in two vehicles (oily, aqueous) were examined for influence of formulations. The substances were administered subcutaneously(s.c.) seven days a week beginning the day after ovariectomy. At the end of the study, uterine weight and bone mineral density (BMD) of tibia were measured.
(§2) Forty-one female Sprague-Dawley rats, 12-14 weeks of age were randomized into six groups, 6-8 animals in each. Five groups were ovariectomized (OVX) and one group was sham-operated (SHAM). Treatments started on the day following operation and continued for 28 days. The animals were treated s.c. once a day seven times a week as follows. Group 1 (SHAM vehicle group) and group 2 (OVX vehicle group) were given the vehicle 30% hydroxypropyl-β-cyclodextrin (HP-β-CD). Groups 3 and 4 were administered 4 μg/kg/d of estradiol hemihydrate in vehicle benzyl benzoate/ricinus oil (B/R) and in vehicle HP-β-CD, respectively. Groups 5 and 6 were given 20 mg/kg/d of 2S(−)8-Prenylnaringenin and racemic 8-Prenylnaringenin, respectively, both in vehicle HP-β-CD. At the end of the study, left tibiae were excised for the ex vivo BMD […] were taken from all dosing solutions on the first and last day of use.
(§3) Vehicle 1 (used in the groups 1 and 2): 30% hydroxypropyl-β-cyclodextrin and 0.3% NaCl (w/v), 5% ethanol (v/v) in Aqua sterilisata, pH 7.4.
(§4) Vehicle 2 (used when preparing dosing solutions of the groups 4, 5 and 6): 30% hydroxypropyl-β-cyclodextrin and 0.3% NaCl (w/v) in Aqua sterilisata, pH 7.4.
(§5) Vehicle 3 (used when preparing a dosing solution of the group 3): benzyl benzoate/ricinus oil (B/R) 1+4, v/v.

[3] = Body weight, 8-PN racemic, 2S(−) 8-PN and estradiol hemihydrate in ovariectomized rats (Example 4); assay type: in vivo, Sprague-Dawley rats; conditions: OVX rats, s.c. once a day, 28 days
Procedure: as §1, §2, §3, §4, §5

ovariectomized rats [4] = assay: Relative uterine weight, estradiol in ovariectomized rats (Example 2); assay type: in vivo, Sprague-Dawley rats; conditions: OVX rats; for Relative uterine weight: s.c. 5 days a week, 4 weeks
Procedure: (§6) Fifty-six female Sprague-Dawley rats, 12-14 weeks old, were used altogether. Forty-nine animals were randomized into seven groups. Group 8 (seven animals) administered with the third vehicle, benzyl alcohol/sesame oil, was added to the study thirteen days later. Seven groups were ovariectomized (OVX) and one group was sham-operated (SHAM). Animals were treated subcutaneously once a day, five days a week (Monday-Friday) as follows. Groups 1 (the SHAM group) and 2 (the OVX group) were given the vehicle benzylbenzoate/ricinus oil (0.5 ml/kg, B/R). […] Treatments started on the day following surgical operation and continued for 4 weeks. At the end of the study, ex vivo BMD of proximal tibia was measured and serum estradiol was determined. In addition, uterus was weighed. Relative uterine weight was calculated as percentage of body weight

ovariectomized rats [5] = assay: Trabecular density of proximal tibia, 8-PN racemic, 2S(−) 8-PN and estradiol hemihydrate in ovariectomized rats (Example 4); assay type: in vivo, Sprague-Dawley rats; conditions: OVX rats, s.c. 28 days
Procedure: as §1, §2, §3, §4, §5

[6] = Body weight, estradiol in ovariectomized rats (Example 2); assay type: in vivo, Sprague-Dawley rats; conditions: OVX rats, s.c. once a day, 5 days a week, 4 weeks
Procedure: as §6, with “weighed.” for “weighed. Relative uterine weight was calculated as percentage of body weight”

ERE-Luc = assay: Estrogenic activity in the estrogen reporter mouse ERE-Luc model, luciferase activity in organs (Example 5); assay type: in vivo, mice; conditions: male ERE-Luc mice, six hours after the injection; for Luciferase activity, Prostate: controls 0.5; for Luciferase activity, Bone: controls 2.8; for Luciferase activity, Brain: controls 6.5; for Luciferase activity, Liver: controls 7.6
Procedure: In order to avoid experimental noise male animals were used.
Fourtyfive heterozygous male ERE-Luc mice of two months of age were fed with soy-free diet for two weeks before assigning them to each experimental group then all the mice were injected intraperitoneally (i.p.) with 250 μl of an oily solution containing the following compounds: • 1. Experimental group 1: vehicle • 2. Experimental group 2: 17β-estradiol at 1.5 μg/kg • 3. Experimental group 3: 2S(−)-8-PN at 30 mg/kg • 4. […] Experimental group 5: genistein at 30 mg/kg.
The treatment was carried out in experimental groups of three mice each and repeated three times (therefore numbers reflect the average of […] determinations on a total of 9 animals).
Six hours after the injection, mice were sacrificed by cervical dislocation and organs were dissected and frozen on dry ice. The following organs were analyzed for lucifererase activity by enzymatic assay: prostate, liver, bone, brain.
Data represent means ±standard deviation of N=9 animals per group.
Analysis of variance (ANOVA) for overall comparison was followed by Tukey test for paired comparisons. All statistical procedures were carried out with Systat and SAS (*P<0.05; **P<0.01).

[7] = 4 μg/kg/d in benzyl benzoate/ricinus oil (B/R)
[8] = 4.0 μpg/kg/d s.c. five times a week for four weeks

C[C@]12CC[C@@H]3c4ccc(O)cc4CC[C@H]3[C@@H]1CC[C@@H]2O [estradiol hemihydrate, 17β-estradiol hemihydrate, reference compound]
Total bone density (ovariectomized rats [1]; 1.2 μg/kg/d in BA/S): 596 (18) mg/cm^3 | Trabecular density (ovariectomized rats [1]; 1.2 μg/kg/d in BA/S): 386 (21) mg/cm^3 | Relative uterus weight, Mean (ovariectomized rats [2]; 4 μg/kg/d in B/R): 0.175 | Relative uterus weight, Median (ovariectomized rats [2]; 4 μg/kg/d in B/R): 0.178 | Relative uterus weight, Mean (ovariectomized rats [2]; 4 μg/kg/d in HP-β-CD): 0.131 | Relative uterus weight, Median (ovariectomized rats [2]; 4 μg/kg/d in HP-β-CD): 0.120 | Body weight at The end (bw4b) ([3]; 4 μg/kg/d in HP-β-CD): 285(9) g | The change in Body weight (bw4b-bw0) ([3]; 4 μg/kg/d in HP-β-CD): 10(4) g | Body weight at The end (bw4b) [3, 7]: 291(9) g | The change in Body weight (bw4b-bw0) [3, 7]: 17(4) g | Relative uterine weight (ovariectomized rats [4]; 1.2 μg/kg/d in BA/S): 0.131 (0.008) % of body weight | Trabecular density at left proximal tibia, Mean (ovariectomized rats [5]; 4 μg/kg/d in B/R): 542 mg/cm3 | Trabecular density at left proximal tibia, Median (ovariectomized rats [5]; 4 μg/kg/d in B/R): 577 mg/cm3 | Trabecular density at left proximal tibia, Mean (ovariectomized rats [5]; 4 μg/kg/d in HP-β-CD): 406 mg/cm3 | Trabecular density at left proximal tibia, Median (ovariectomized rats [5]; 4 μg/kg/d in HP-β-CD): 383 mg/cm3 | Final body weight ([6]; 1.2 μg/kg/d in vehicle BA/S): 288 (11) g | The change in body weight ([6]; 1.2 μg/kg/d in vehicle BA/S): 28 (1) g

O=c1c(-c2ccc(O)cc2)coc2cc(O)cc(O)c12 [Genistein, genistein]
Luciferase activity, Prostate (ERE-Luc; i.p. 30 mg/kg): 0.7 ** arbitrary units | Luciferase activity, Bone (ERE-Luc; i.p. 30 mg/kg): 3.8 * arbitrary units | Luciferase activity, Brain (ERE-Luc; i.p. 30 mg/kg): 8.7 arbitrary units | Luciferase activity, Liver (ERE-Luc; i.p. 30 mg/kg): 12.2 ** arbitrary units

C[C@]12CC[C@@H]3c4ccc(O)cc4CC[C@H]3[C@@H]1CC[C@@H]2O [17β-estradiol]
effect on total and trabecular bone mineral density of proximal tibia (ovariectomized rats [1]; [8]): prevented the OVX-induced decrease in total and trabecular bone mineral density of proximal tibia | Total bone density (ovariectomized rats [1]; 0.2 μg/kg/d in B/R): 511 (17) mg/cm^3 | Trabecular density (ovariectomized rats [1]; 0.2 μg/kg/d in B/R): 271 (17) mg/cm^3 | Total bone density (ovariectomized rats [1]; 0.4 μg/kg/d in B/R): 506 (8) mg/cm^3 | Trabecular density (ovariectomized rats [1]; 0.4 μg/kg/d in B/R): 260 (13) mg/cm^3 | Total bone density (ovariectomized rats [1]; 1.2 μg/kg/d in B/R): 577 (24) mg/cm^3 | Trabecular density (ovariectomized rats [1]; 1.2 μg/kg/d in B/R): 376 (31) mg/cm^3 | Total bone density (ovariectomized rats [1]; 1.2 μg/kg/d in E/A): 577 (22) mg/cm^3 | Trabecular density (ovariectomized rats [1]; 1.2 μg/kg/d in E/A): 366 (24) mg/cm^3 | Total bone density (ovariectomized rats [1]; 4.0 μg/kg/d in B/R): 637 (13) mg/cm^3 | Trabecular density (ovariectomized rats [1]; 4.0 μg/kg/d in B/R): 435 (21) mg/cm^3 | effect on relative uterine weight (ovariectomized rats [4]; [8]): prevented the decrease in relative uterine weight and maintained it on the level of the SHAM vehicle group | Relative uterine weight (ovariectomized rats [4]; 0.2 μg/kg/d in B/R): 0.045 (0.003) % of body weight | Relative uterine weight (ovariectomized rats [4]; 0.4 μg/kg/d in B/R): 0.054 (0.003) % of body weight | Relative uterine weight (ovariectomized rats [4]; 1.2 μg/kg/d in B/R): 0.110 (0.008) % of body weight | Relative uterine weight (ovariectomized rats [4]; 1.2 μg/kg/d in E/A): 0.114 (0.005) % of body weight | Relative uterine weight (ovariectomized rats [4]; 4.0 μg/kg/d in B/R): 0.159 (0.006) % of body weight | Luciferase activity, Prostate (ERE-Luc; i.p. 1.5 μg/kg): 0.5 arbitrary units | Luciferase activity, Bone (ERE-Luc; i.p. 1.5 μg/kg): 2.6 arbitrary units | Luciferase activity, Brain (ERE-Luc; i.p. 1.5 μg/kg): 6.6 arbitrary units | Luciferase activity, Liver (ERE-Luc; i.p. 1.5 μg/kg): 11.0 ** arbitrary units | Final body weight ([6]; 0.2 μg/kg/d in vehicle B/R): 304 (6) g | The change in body weight ([6]; 0.2 μg/kg/d in vehicle B/R): 51 (3) g | Final body weight ([6]; 0.4 μg/kg/d in vehicle B/R): 312 (6) g | The change in body weight ([6]; 0.4 μg/kg/d in vehicle B/R): 53 (5) g | Final body weight ([6]; 1.2 μg/kg/d in vehicle B/R): 303 (6) g | The change in body weight ([6]; 1.2 μg/kg/d in vehicle B/R): 48 (4) g | Final body weight ([6]; 1.2 μg/kg/d in vehicle E/A): 287 (8) g | The change in body weight ([6]; 1.2 μg/kg/d in vehicle E/A): 33 (3) g | Final body weight ([6]; 4.0 μg/kg/d in vehicle B/R): 284 (7) g | The change in body weight ([6]; 4.0 μg/kg/d in vehicle B/R): 31 (3) g
